Laboratory results as given in publication PMC4906375, “Contribution of Amphipathicity and Hydrophobicity to the Antimicrobial Activity and Cytotoxicity of β-Hairpin Peptides” (ACS Infectious Diseases, 2016).
≈ marks a conversion by molar mass, not a printed value. Residues, ends and D or L forms follow the SMILES beside them.

Key:
[1] = tested on: C. neoformans ATCC 208821; assay: microbe, parasite or virus in culture; assay type: cell-based, Cryptococcus neoformans
Procedure: Both antibacterial and antifungal MIC assays were performed by a broth microdilution plate based method as per CLSI guidelines for antimicrobial susceptibility testing.[53],[54] […] Full assay details are included in the Supporting Information with a full list of strains tested in Table S1.
Antibacterial assay (Minimum Inhibitory Concentration [MIC]).
MIC assay was performed by a broth microdilution plate based method as per CLSI guidelines for antimicrobial susceptibility testing of aerobic bacteria.1 Compounds were prepared at 1.28 mg/mL solution in water. The tested strains, Table S1, were cultured in Luria broth (LB) (In Vitro Technologies, USB75852), at 37 °C overnight. A sample of culture was then diluted 40Pfold in fresh Muller Hinton broth (MHB) (Bacto laboratories, 211443) and incubated at 37 °C for 1.5P2 h. The compounds were serially diluted twoPfold across the wells, with compound concentrations ranging from 0.015 µg/mL to 512 µg/mL, plated in duplicate. The resultant midPlog phase cultures were diluted to the final concentration of 1×10^6 CFU/mL, then 50 µL was added to each well of the compoundP containing 96Pwell plates (Corning 3641, NonPbinding Surface [NBS]), giving a final compound concentration range of 0.008 µg/mL to 256 µg/mL and 5x10^5 CFU/mL. All the plates were covered and incubated at 37 °C for 18 h. MICs were determined visually, being defined as the lowest concentration showing no visible growth. Resazurin was added at 0.001% final concentration to each well and incubated for 2 h before MICs were rePread for confirmation using the colour change from blue to pink to indicate wells containing viable cells. The resazurin assay was added in some wells where some form of precipitate was present in otherwise clear wells, making it difficult to ascertain which wells had visible […]
Antifungal assay (Minimum Inhibitory Concentration [MIC]). MIC assay was performed by a broth microdilution plate based method as per CLSI guidelines for antimicrobial susceptibility testing.2 Fungi strains, Table S1, were cultured for 3 days on Yeast ExtractPPeptone Dextrose (YPD) (SigmaPAldrich, Y1500) agar at 30 °C. A yeast suspension of 1x10^6 to 5x10^6 CFU/mL was prepared from five colonies. These stock suspensions were diluted with Yeast Nitrogen Base (YNB) (Becton Dickinson, 233520) broth to a final concentration of 2.5 ×10^3 CFU/mL. All samples, compounds and standards were plated in 96Pwell plates (Corning 3641, NonPbinding Surface [NBS]), by adding 10 µL of 1.28 mg/mL stock solution to each well and 90 µL of media. Then, the samples were serial diluted (1:2) in 12 concentrations across the plate. The standard antifungal ranged from 256 […]
µg/mL to 0.12 µg/mL and compounds from 128 µg/mL to 0.06 µg/mL with final volumes of 50 µL per well, plated in duplicate. Then, 50 µL of the fungi suspension that was previously prepared in YNB broth to the final concentration of 2.5×10^3 CFU/mL, was added to each well of the compoundPcontaining plates, giving a final standard compound concentration range of 128 µg/mL to 0.06 µg/mL and tested compound from 64 µg/mL to 0.03 µg/mL. Plates were covered and incubated at 35 °C for 24 h. Candida albicans MICs were determined by measuring the absorbance at OD530. For Cryptococcus neoformans 10 µL of 0.06 % resazurin were added to the 24 h incubated plates. Then, these plates were incubated for another 3 h.
Cryptococcus neoformans MICs were determined by measuring the absorbance at OD570P600. […]

[2] = hemolysis (%) at 300 μg/mL, human erythrocytes, 3 h, relative to 100% hemolysis by 1% Triton X-100
[3] = tested on: E. coli ATCC 25922 cytoplasmic membrane; assay: Inner membrane permeability measured by SYTOX green fluorescence emission; conditions: for permeabilisation of the E. coli cytoplasmic membrane at lethal concentrations: SYTOX green, E. coli ATCC 25922, 1 h

For `CC[C@H](C)[C@H](NC(=O)[C@@H](NC(=O)[C@@H]1CCCN1C(=O)[C@@H](NC(=O)[C@@H]1CCCN1C(=O)[C@H](CCCCN)NC(=O)[C@H](CCCCN)NC(=O)[C@H](CO)NC(=O)CN)C(C)C)[C@@H](C)CC)C(=O)N[C@@H](Cc1ccc(O)cc1)C(=O)N[C@H]1CSSC[C@@H](C(=O)N[C@@H](CCC(N)=O)C(=O)N[C@@H](CCCNC(=N)N)C(=O)N[C@@H](CCSC)C(N)=O)NC(=O)[C@H](CCCCN)NC(=O)CNC(=O)[C@H]([C@@H](C)O)NC(=O)[C@H](CCCNC(=N)N)NC(=O)[C@H](CCCNC(=N)N)NC(=O)[C@H](CC(N)=O)NC1=O` [thanatin], the MIC ([1]; C. neoformans ATCC 208821, n = 4) was 64 µg/mL (≈ 26.3 µM), the hemolysis [2] was 1.3 ± 0.4% and the “permeabilisation of the E. coli cytoplasmic membrane at lethal concentrations” value (shortened to “permeabilisation”) [3] was “does not permeabilise”.
In the case of `CC(C)[C@@H]1NC(=O)[C@H](CCCNC(=N)N)NC(=O)[C@H](Cc2ccccc2)NC(=O)[C@@H](NC(=O)[C@H](Cc2c[nH]c3ccccc23)NC(=O)[C@H](CCCNC(=N)N)NC(=O)[C@@H](N)CCCNC(=N)N)CSSC[C@@H](C(=O)N[C@@H](CCCNC(=N)N)C(N)=O)NC(=O)[C@H](CCCCN)NC(=O)[C@H](CCCNC(=N)N)NC(=O)[C@H](Cc2ccc(O)cc2)NC(=O)[C@@H]2CSSC[C@H](NC1=O)C(=O)N[C@@H](Cc1ccc(O)cc1)C(=O)N[C@@H](CCCNC(=N)N)C(=O)NCC(=O)N[C@@H](Cc1ccccc1)C(=O)N2` [polyphemusin-1] (HELM PEPTIDE1{R.R.W.C.F.R.V.C.Y.R.G.F.C.Y.R.K.C.R.[am]}$PEPTIDE1,PEPTIDE1,4:R3-17:R3|PEPTIDE1,PEPTIDE1,8:R3-13:R3$$$V2.0), the MIC ([1]; ATCC 208821) is reported as 0.06 µg/mL (≈ 0.0244 µM), the hemolysis [2] is reported as ~30% and the “permeabilisation” value [3] is reported as “permeabilise”. For the same molecule, the “permeabilization concentration relative to MIC” value ([3]; same E. coli ATCC 25922 strain) was “lower concentration than their MIC”.
With `[H][C@]12CSSC[C@]([H])(NC(=O)[C@]([H])([C@@H](C)CC)NC(=O)CNC(=O)[C@H](CCCNC(=N)N)NC(=O)[C@H](Cc3ccc(O)cc3)NC1=O)C(=O)N[C@@H](Cc1ccc(O)cc1)C(=O)N[C@@H](CCCNC(=N)N)C(=O)N[C@@H](CCCNC(=N)N)C(=O)N[C@H](C(=O)N[C@@H](CCCNC(=N)N)C(N)=O)CSSC[C@H](NC(=O)[C@H](Cc1c[nH]c3ccccc13)NC(=O)[C@@H](N)CCCCN)C(=O)N[C@@H](Cc1ccccc1)C(=O)N[C@@H](CCCNC(=N)N)C(=O)N[C@@H](C(C)C)C(=O)N2` [tachyplesin-1] (HELM PEPTIDE1{K.W.C.F.R.V.C.Y.R.G.I.C.Y.R.R.C.R.[am]}$PEPTIDE1,PEPTIDE1,3:R3-16:R3|PEPTIDE1,PEPTIDE1,7:R3-12:R3$$$V2.0) the MIC ([1]; ATCC 208821) was 0.125 µg/mL (≈ 0.0552 µM), the hemolysis [2] was ~30% and the “permeabilisation” value [3] was “permeabilise”.
In the case of `CC(C)[C@@H]1NC(=O)CNC(=O)[C@H](CC(N)=O)NC(=O)[C@H](CCCNC(=N)N)NC(=O)[C@H](Cc2ccc(O)cc2)NC(=O)[C@H](C(C)C)NC(=O)[C@@H]2CSSC[C@H](NC(=O)[C@H](C(C)C)NC(=O)[C@H](CCCNC(=N)N)NC1=O)C(=O)N[C@@H](Cc1ccc(O)cc1)C(=O)N[C@@H](CCCNC(=N)N)C(=O)N[C@@H](CCCNC(=N)N)C(=O)N[C@H](C(=O)N[C@@H](CC(N)=O)C(=O)O)CSSC[C@H](NC(=O)[C@H](Cc1ccccc1)NC(=O)CN)C(=O)N[C@@H](Cc1c[nH]c3ccccc13)C(=O)N[C@@H](Cc1ccc(O)cc1)C(=O)N[C@@H](C(C)C)C(=O)N2` [arenicin-3] (HELM PEPTIDE1{G.F.C.W.Y.V.C.V.Y.R.N.G.V.R.V.C.Y.R.R.C.N}$PEPTIDE1,PEPTIDE1,3:R3-20:R3|PEPTIDE1,PEPTIDE1,7:R3-16:R3$$$V2.0), the MIC ([1]; ATCC 208821) is reported as 8 µg/mL (≈ 3.06 µM), the hemolysis [2] is reported as 4% and the “permeabilisation” value [3] is reported as “permeabilise”.
